Data published in patent publication US6403593B1, “Triazole compounds and the use thereof” (Abbott Laboratories, priority 1995, dated 2002).
Where a name gives a salt, the structure may show the parent alone. Read-outs that look alike come from different tables or passages of the source.

What was measured:
human D3 receptor = molecular target: T1, human D3 receptor (Homo sapiens, UniProt P35462); test: D3 binding assay (125I-iodosulpiride); details: for Selectivity KiD2/KiD3: ratio of D2 (3H-spiperone) Ki to D3 (125I-sulpiride) Ki
T1 construct: host or cells: CCL 1.3 mouse fibroblasts
T1 sequence (P35462 whole entry): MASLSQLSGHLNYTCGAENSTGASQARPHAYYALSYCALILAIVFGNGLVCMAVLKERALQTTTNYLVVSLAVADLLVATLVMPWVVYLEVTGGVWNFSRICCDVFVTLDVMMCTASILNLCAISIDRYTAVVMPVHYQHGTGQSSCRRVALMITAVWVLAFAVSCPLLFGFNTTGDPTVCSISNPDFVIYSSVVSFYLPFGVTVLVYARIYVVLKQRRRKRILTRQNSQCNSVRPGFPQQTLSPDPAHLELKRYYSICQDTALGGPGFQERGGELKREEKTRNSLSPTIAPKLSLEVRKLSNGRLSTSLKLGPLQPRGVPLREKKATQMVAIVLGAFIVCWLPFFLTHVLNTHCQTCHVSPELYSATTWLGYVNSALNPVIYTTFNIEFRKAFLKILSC
Experimental: Cloned human D3 receptor-expressing CCL 1.3 mouse fibroblasts obtained from Res. Biochemicals Internat. One Strathmore Rd., Natick, Mass. 01760-2418 USA, were used for the binding studies.
The D3-expressing cells where grown in RPMI-1640 containing 10% fetal calf serum (GIBCO No. 041-32400 N); 100 U/ml penicillin and 0.2% streptomycin (GIBCO BRL, Gaithersburg, Md., USA). After 48h, the cells were washed with PBS and incubated with 0.05% trypsin-containing PBS for 5 min. Neutralization with medium was then carried out, and the cells were collected by centrifugation at 300×g. To lyze the cells, the pellet was briefly washed with lysis buffer (5 mM tris-HCl, pH 7.4, with 10% glycerol) and then incubated in a concentration of 10^7 cells/ml of lysis buffer at 4° C. for 30 min. The cells were centrifuged at 200×g for 10 min and the pellet was stored in liquid nitrogen.
For the D3 receptor binding assay, the membranes were suspended in incubation buffer (50 mM tris-HCl, pH 7.4, with […], 5 mM KCl, 2 mM CaCl2, 2 mM MgCl2, 10 μM quinolinol, 0.1% ascorbic acid and 0.1% BSA) in a concentration of about 10^6 cells/250 μl of assay mixture and incubated at 30° C. with 0.1 nM ^125iodosulpiride in the presence and absence of test substance. The non-specific binding was determines using 10^−6 M spiperone.
After 60 min, the free and the bound radioligand was separated by filtration through GF/B glasd fiber filters (Whatman, England) on a Skatron cell collector (Skatron, Lier, Norway), and the filters were washed with ice-cold tris-HCl buffer, pH 7.4. The radioactivity collected on the filters was quantified using a Packard 2200 CA ligand scintillation counter.
The Ki values were determined by non-linear regression analysis using the LIGAND program.

[1] = cloned human D3 receptor in CCL 1.3 mouse fibroblast membranes, 0.1 nM 125I-iodosulpiride, read-out: D3 125I-sulpiride Ki

Row | melting point [°C] | Selectivity KiD2/KiD3 (human D3 receptor) | Ki (human D3 receptor; [1]) [nM] | affinity for the D3 receptor (in words) (human D3 receptor; D3 binding assay) | SMILES | Ki (human D3 receptor) [nM]
1 | – | 58 | 8.8 | – | Cn1c(N)nnc1SCCCN1CCN(c2cc(C(C)(C)C)cc(C(C)(C)C)c2)CC1 [Example 15] | –
2 | – | 67 | 1.8 | – | CCn1c(N)nnc1SCCCN1CCN(c2cccc(C(F)F)c2)CC1 [Example 24] | –
3 | 65 to 67 | 185 | 8.1 | – | Cc1cc(N2CCN(CCCSc3nnc(N)n3C)CC2)nc(-n2cccc2)n1 [Example 41] | –
4 | 67 to 72 | 182 | 13.4 | – | CC(=CCN1CCN(c2cc(C(F)(F)F)nc(C(C)(C)C)n2)CC1)CSc1nnc(N)n1C [Example 42] | –

The remaining lines, values behind:

Row | SMILES | melting point [°C] | Selectivity KiD2/KiD3 (human D3 receptor) | Ki (human D3 receptor; [1]) [nM] | affinity for the D3 receptor (in words) (human D3 receptor; D3 binding assay) | Ki (human D3 receptor) [nM]
5 | CNc1nnc(SCCCN2CCN(c3cccc(C(F)F)c3)CC2)n1C (as salt: hydrochloride) [Example 37] | 234 to 235 | – | – | – | –
6 | Cn1c(N)nnc1SCCCN1CCN(c2cccc(C(F)(F)F)c2)CC1 [Example 10] | – | 49 | – | – | 4.5
7 | CNc1nnc(SCCCN2CCN(c3cccc(C(F)F)c3)CC2)n1C [Example 37] | – | 176 | 1.7 | – | –
8 | Cc1nnc(/C=C/CN2CCN(c3ccccc3)CC2)n1-c1ccccc1 [reference compound] | – | – | 4100 | virtually no affinity | –
